Results published in PubChem BioAssay AID292 (DTP/NCI, 2004).
Several values for one entry are separate records, joined by “and”; a condition that tells them apart may be missing. Equal entries are not always repeated. Inconclusive results and toxic doses are left out.

System: B6C3F1 mice, ip Sarcoma M5076, median survival T/C
Assay: NCI In Vivo Anticancer Drug Screen. Data for tumor model Sarcoma M5076 (intraperitoneal) in B6C3F1 mice
Conditions: endpoint: median survival time, higher = longer survival
Outline: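 Antitumour effect is judged in tumour-bearing mice by comparing survival after compound dosing against vehicle-only animals, reported as T/C.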

[1] = dose: 50.0 mg/kg/injection, schedule: Q04DX004 (ip), vehicle: water
[2] = dose: 100.0 mg/kg/injection, schedule: Q04DX004 (ip), vehicle: water

`CCC(/C=C/C1OC(=O)C=CC1C)=C\C(C)C/C=C/C(C)=C/C(C)C(=O)C(C)C(O)C(C)C/C(C)=C/C(=O)O` (centres undefined) was tested, and the T/C (dose: 25.0 micrograms/kg/injection, schedule: Q04DX004 (ip), vehicle: other) was 104 % of control, the T/C (dose: 25.0 micrograms/kg/injection, schedule: Q04DX004 (ip), vehicle: saline + alcohol) was 162 % of control and the T/C (dose: 25.0 micrograms/kg/injection, schedule: Q04DX004 (ip), vehicle: saline) was 110 % of control and 111 % of control. For the same compound, the T/C (dose: 25.0 micrograms/kg/injection, schedule: Q04DX004 (iv), vehicle: saline) was 101 % of control, the T/C (dose: 50.0 micrograms/kg/injection, schedule: Q04DX004 (ip), vehicle: other) was 114 % of control and the T/C (dose: 50.0 micrograms/kg/injection, schedule: Q04DX004 (ip), vehicle: saline + alcohol) was 163 % of control and 175 % of control. The T/C (dose: 50.0 micrograms/kg/injection, schedule: Q04DX004 (ip), vehicle: saline) was 109 % of control and 114 % of control, the T/C (dose: 50.0 micrograms/kg/injection, schedule: Q04DX004 (iv), vehicle: saline) was 104 % of control and the T/C (dose: 100.0 micrograms/kg/injection, schedule: Q04DX004 (ip), vehicle: other) was 121 % of control. For the same compound, the T/C (dose: 100.0 micrograms/kg/injection, schedule: Q04DX004 (ip), vehicle: saline + alcohol) was 166 % of control and 188 % of control, the T/C (dose: 100.0 micrograms/kg/injection, schedule: Q04DX004 (ip), vehicle: saline) was 124 % of control and the T/C (dose: 100.0 micrograms/kg/injection, schedule: Q04DX004 (iv), vehicle: saline) was 110 % of control. The T/C (dose: 100.0 micrograms/kg/injection, schedule: Q04DX004 (sc), vehicle: other) was 106 % of control, the T/C (dose: 200.0 micrograms/kg/injection, schedule: Q04DX004 (ip), vehicle: other) was 121 % of control and the T/C (dose: 200.0 micrograms/kg/injection, schedule: Q04DX004 (ip), vehicle: saline + alcohol) was 184 % of control and 195 % of control. For the same compound, the T/C (dose: 200.0 micrograms/kg/injection, schedule: Q04DX004 (ip), vehicle: saline) was 124 % of control, the T/C (dose: 200.0 micrograms/kg/injection, schedule: Q04DX004 (iv), vehicle: saline) was 102 % of control and the T/C (dose: 200.0 micrograms/kg/injection, schedule: Q04DX004 (sc), vehicle: other) was 106 % of control. The T/C (dose: 400.0 micrograms/kg/injection, schedule: Q04DX004 (ip), vehicle: other) was 152 % of control, the T/C (dose: 400.0 micrograms/kg/injection, schedule: Q04DX004 (ip), vehicle: saline + alcohol) was 163 % of control and 184 % of control and 195 % of control and the T/C (dose: 400.0 micrograms/kg/injection, schedule: Q04DX004 (iv), vehicle: saline) was 105 % of control. For the same compound, the T/C (dose: 400.0 micrograms/kg/injection, schedule: Q04DX004 (sc), vehicle: other) was 106 % of control, the T/C (dose: 800.0 micrograms/kg/injection, schedule: Q04DX004 (ip), vehicle: saline + alcohol) was 191 % of control and 217 % of control and the T/C (dose: 800.0 micrograms/kg/injection, schedule: Q04DX004 (ip), vehicle: saline) was 152 % of control. For the same compound, the T/C (dose: 800.0 micrograms/kg/injection, schedule: Q04DX004 (iv), vehicle: saline) was 116 % of control and the T/C (dose: 800.0 micrograms/kg/injection, schedule: Q04DX004 (sc), vehicle: other) was 119 % of control.

`CC(=O)c1cccc(NC2C(N)C(NC(=O)N(C)C)(C(C)O)C(C)(O)C2(O)COC(=O)c2c(C)cccc2O)c1` (centres undefined) was tested, and the T/C (dose: 2.5 mg/kg/injection, schedule: Q04DX004 (ip), vehicle: saline) was 112 % of control and 114 % of control, the T/C (dose: 5.0 mg/kg/injection, schedule: Q04DX004 (ip), vehicle: saline) was 105 % of control and 115 % of control and the T/C (dose: 10.0 mg/kg/injection, schedule: Q04DX004 (ip), vehicle: saline) was 117 % of control and 120 % of control. For the same compound, the T/C (dose: 20.0 mg/kg/injection, schedule: Q04DX004 (ip), vehicle: saline) was 115 % of control.

`COC(=O)C12OCC34C(CC5C(C)C6=CC(=O)OC6=CC5(C)C3C(O)C1O)OC(=O)C(O)C24` (centres undefined) was tested, and the T/C (dose: 0.25 mg/kg/injection, schedule: Q04DX003 (ip), vehicle: Klucel (hydroxypropylcellulose) (HPC)) was 107 % of control, the T/C (dose: 0.43 mg/kg/injection, schedule: Q04DX003 (ip), vehicle: Klucel (hydroxypropylcellulose) (HPC)) was 107 % of control and the T/C (dose: 0.5 mg/kg/injection, schedule: Q04DX004 (ip), vehicle: Klucel (hydroxypropylcellulose) (HPC)) was 111 % of control and 113 % of control. The T/C (dose: 0.72 mg/kg/injection, schedule: Q04DX003 (ip), vehicle: Klucel (hydroxypropylcellulose) (HPC)) was 103 % of control, the T/C (dose: 1.0 mg/kg/injection, schedule: Q04DX004 (ip), vehicle: Klucel (hydroxypropylcellulose) (HPC)) was 116 % of control and 122 % of control and the T/C (dose: 1.2 mg/kg/injection, schedule: Q04DX003 (ip), vehicle: Klucel (hydroxypropylcellulose) (HPC)) was 110 % of control. For the same compound, the T/C (dose: 2.0 mg/kg/injection, schedule: Q04DX003 (ip), vehicle: Klucel (hydroxypropylcellulose) (HPC)) was 112 % of control, the T/C (dose: 2.0 mg/kg/injection, schedule: Q04DX004 (ip), vehicle: Klucel (hydroxypropylcellulose) (HPC)) was 123 % of control and the T/C (dose: 4.0 mg/kg/injection, schedule: Q04DX004 (ip), vehicle: Klucel (hydroxypropylcellulose) (HPC)) was 116 % of control.

With `CNC(=S)C#N` the T/C (dose: 12.5 mg/kg/injection, schedule: Q04DX004 (ip), vehicle: saline + Tween-80 + alcohol) was 90 % of control and the T/C (dose: 50.0 mg/kg/injection, schedule: Q04DX004 (ip), vehicle: saline + Tween-80 + alcohol) was 89 % of control.

With `Cc1cc(O)c2c(c1O)C(=O)C13C(=C2O)C(=O)C2C(O)C1C1C(O)C3C(=O)C3=C(O)c4c(O)cc(C)c(O)c4C(=O)C321` (centres undefined) the T/C (dose: 1.56 mg/kg/injection, schedule: Q04DX004 (ip), vehicle: saline with Tween-80) was 118 % of control, the T/C (dose: 3.12 mg/kg/injection, schedule: Q04DX004 (ip), vehicle: saline with Tween-80) was 118 % of control and the T/C (dose: 6.25 mg/kg/injection, schedule: Q04DX004 (ip), vehicle: saline with Tween-80) was 118 % of control. The T/C (dose: 12.5 mg/kg/injection, schedule: Q04DX004 (ip), vehicle: saline with Tween-80) was 124 % of control.

For `CN(C)CCOc1cccc2c1C(=O)c1ccccc1C2=O`, the T/C [1] was 90 % of control and the T/C [2] was 97 % of control.

For `CNC(=O)c1ccccc1CNC(=S)Nc1cccc(C)c1`, the T/C (dose: 37.5 mg/kg/injection, schedule: Q04DX004 (ip), vehicle: Klucel (hydroxypropylcellulose) (HPC)) was 92 % of control, the T/C (dose: 75.0 mg/kg/injection, schedule: Q04DX004 (ip), vehicle: Klucel (hydroxypropylcellulose) (HPC)) was 102 % of control and the T/C (dose: 150.0 mg/kg/injection, schedule: Q04DX004 (ip), vehicle: Klucel (hydroxypropylcellulose) (HPC)) was 99 % of control. For the same compound, the T/C (dose: 300.0 mg/kg/injection, schedule: Q04DX004 (ip), vehicle: Klucel (hydroxypropylcellulose) (HPC)) was 102 % of control.

`Cn1cc(NC(=O)c2cc(NC(=O)c3cc(NC=O)cn3C)cn2C)cc1C(=O)NCCC(=N)N` was tested, and the T/C (dose: 12.5 mg/kg/injection, schedule: Q04DX004 (ip), vehicle: water) was 108 % of control, the T/C (dose: 25.0 mg/kg/injection, schedule: Q04DX004 (ip), vehicle: water) was 102 % of control and the T/C [1] was 105 % of control. For the same compound, the T/C [2] was 99 % of control.

In the case of `COC1C(N)C(OC2C(Oc3cccc4c(O)c5c(=O)oc6ccc(C)c7c(=O)oc(c34)c5c67)OC(C)C(O)C2(C)O)OC(C)C1O` (centres undefined), the T/C (dose: 2.5 mg/kg/injection, schedule: Q04DX004 (ip), vehicle: other) is reported as 153 % of control, the T/C (dose: 10.0 mg/kg/injection, schedule: Q04DX004 (ip), vehicle: DMSO) is reported as 246 % of control and the T/C (dose: 10.0 mg/kg/injection, schedule: Q04DX004 (ip), vehicle: other) is reported as 165 % of control.

For `CCC(=O)[O][Bi]([c]1ccccc1)[c]1ccccc1`, the T/C (dose: 3.0 mg/kg/injection, schedule: Q04DX004 (ip), vehicle: Klucel (hydroxypropylcellulose) (HPC)) was 101 % of control, the T/C (dose: 6.0 mg/kg/injection, schedule: Q04DX004 (ip), vehicle: Klucel (hydroxypropylcellulose) (HPC)) was 98 % of control and the T/C (dose: 12.0 mg/kg/injection, schedule: Q04DX004 (ip), vehicle: Klucel (hydroxypropylcellulose) (HPC)) was 102 % of control. The T/C (dose: 24.0 mg/kg/injection, schedule: Q04DX004 (ip), vehicle: Klucel (hydroxypropylcellulose) (HPC)) was 89 % of control.

For `Nc1nc([Se]c2nc(N)nc3c2ncn3C2OC(CO)C(O)C2O)c2ncn(C3OC(CO)C(O)C3O)c2n1` (centres undefined), the T/C (dose: 25.0 mg/kg/injection, schedule: Q04DX004 (ip), vehicle: distilled water + Tween-80) was 123 % of control, the T/C (dose: 100.0 mg/kg/injection, schedule: Q04DX004 (ip), vehicle: distilled water + Tween-80) was 159 % of control and the T/C (dose: 200.0 mg/kg/injection, schedule: Q04DX004 (ip), vehicle: distilled water + Tween-80) was 157 % of control and 177 % of control.

For `C[CH2][Sn]([CH2]C)([CH2]C(=O)OC)[CH2]C(=O)OC`, the T/C (dose: 1.5 mg/kg/injection, schedule: Q04DX004 (ip), vehicle: saline with Tween-80) was 96 % of control, the T/C (dose: 3.0 mg/kg/injection, schedule: Q04DX004 (ip), vehicle: saline with Tween-80) was 93 % of control and the T/C (dose: 6.0 mg/kg/injection, schedule: Q04DX004 (ip), vehicle: saline with Tween-80) was 95 % of control. The T/C (dose: 12.0 mg/kg/injection, schedule: Q04DX004 (ip), vehicle: saline with Tween-80) was 92 % of control.
